≈ marks a conversion by molar mass, not a printed value.
What was measured:
[1] = physchem; settings: buffer, pH 7.4
Description: Aqueous solubility of the compound in pH 7.4 HBSS buffer HPLC-MS analysis

[2] = physchem; settings: octanol/water, pH 7.4
Description: Octanol-water distribution coefficient, log D of the compound at pH 7.4 by RP-HPLC analysis

[3] = physchem; settings: pH 2.3
Description: Dissociation constant, pKa of compound at pH 2.3 to 10.8 by pressure assisted capillary electrophoresis-MS analysis

[4] = in vitro; settings: human, hepatocytes
Description: Intrinsic clearance in human hepatocytes assessed per million cells at 50 uM in presence of NADPH by HPLC-MS analysis

[5] = in vitro; settings: human, liver microsomes
Description: Intrinsic clearance in human liver microsomes at 50 uM in presence of NADPH by HPLC-MS analysis

Compound	solubility [1]	logD [2]	pKa [3]	hepatocyte CLint at 50 µM [4]	microsomal CLint at 50 µM [5]
COc1cc(OC2CN(C(=O)c3nnc(-c4ccccc4)o3)C2)ccc1CN1CCCC12COC2	60 µM (≈ 28.6 µg/mL)	3.8	8	27.5 µL/min/1e6 cells	
O=C(NC1C2CC3CC1CC(O)(C3)C2)c1cnc(NC2COC2)nc1C1CCCC1 (configuration not stated)	> 1820 µM	2.1	2.6		< 2 µL/min/mg
COc1ccc(-c2nnc(C(=O)N3CC(Oc4ccc(CNCC5(C)COC5)cc4)C3)o2)cc1	61 µM (≈ 28.3 µg/mL)	2	8.2		103 µL/min/mg
COc1ccc(-c2nnc(C(=O)N3CC(Oc4ccc(CN5CC6CC(C5)O6)cc4)C3)o2)cc1	3 µM (≈ 1.39 µg/mL)	2.9	7.3	38 µL/min/1e6 cells	
COc1ccc(CN2CCCC23COC3)cc1	610 µM (≈ 142 µg/mL)	1.8			8.1 µL/min/mg
COc1ccc(CN2CCCC3(COC3)C2)cc1	744 µM (≈ 184 µg/mL)	1.5	8.08		28.3 µL/min/mg
COc1cc(OC2CN(C(=O)c3nnc(-c4ccc(C(F)F)cc4)o3)C2)ccc1CN1CC2(COC2)C1	87 µM (≈ 44.6 µg/mL)	2.1	8.2	19.4 µL/min/1e6 cells	
COc1ccc(-c2nnc(C(=O)N3CC(Oc4ccc(CN5CC6(CCOC6)C5)cc4)C3)o2)cc1	82 µM (≈ 39.1 µg/mL)			10.8 µL/min/1e6 cells	
COc1cc(CN2CCCC23COC3)ccc1OC1CN(C(=O)c2nnc(-c3ccccc3)o2)C1	221 µM (≈ 105 µg/mL)	3.5	6	25 µL/min/1e6 cells	
COc1cc(CN2CCCC23COC3)ccc1OC1CN(C(=O)c2nnc(-c3ccc(C(F)F)cc3)o2)C1	39 µM (≈ 20.5 µg/mL)	3.8	6.1	38.5 µL/min/1e6 cells	
Cc1cc(OC2CN(C(=O)c3nnc(-c4ccccc4)o3)C2)ccc1CN1CCCC2(COC2)C1		3.6	7.6		
COc1ccc(-c2nnc(C(=O)N3CC(Oc4ccc(CN5CC6(COC6)C5)c(C)c4)C3)o2)cc1	73 µM (≈ 34.8 µg/mL)	2.6	8.2	17 µL/min/1e6 cells	
COc1cc(OC2CN(C(=O)c3nnc(-c4ccc(C(F)F)cc4)o3)C2)ccc1CN1CCCC12COC2	43 µM (≈ 22.6 µg/mL)	4.2	7	42.7 µL/min/1e6 cells	
COc1ccc(-c2nnc(C(=O)N3CC(Oc4ccc(CN5CC6(COC6)C5)cc4C)C3)o2)cc1	74 µM (≈ 35.3 µg/mL)	2.5	8.4	18.6 µL/min/1e6 cells	
O=C(c1nnc(-c2ccc(OC(F)F)cc2)o1)N1CC(Oc2ccc(CN3CC4(COC4)C3)cc2)C1	51 µM (≈ 25.4 µg/mL)	2.5		27.2 µL/min/1e6 cells	
O=C(NC1C2CC3CC1CC(O)(C3)C2)c1cnc(NC2COC2)nc1C1CCC1 (configuration not stated)	> 2520 µM	1.6	2.4		< 3.5 µL/min/mg

Compound	solubility [1]	logD [2]	pKa [3]	hepatocyte CLint at 50 µM [4]	microsomal CLint at 50 µM [5]
COc1cc(CN2CC3(COC3)C2)ccc1OC1CN(C(=O)c2nnc(-c3ccc(C(F)F)cc3)o2)C1	82 µM (≈ 42 µg/mL)	2.2	8.9	19.5 µL/min/1e6 cells	
COc1ccc(-c2nnc(C(=O)N3CC(Oc4ccc(CN(C)CC5(C)COC5)c(C)c4)C3)o2)cc1		3	8		
COc1ccc(-c2nnc(C(=O)N3CC(Oc4ccc(CN5CC6(CCCO6)C5)cc4)C3)o2)cc1	495 µM (≈ 236 µg/mL)			10.4 µL/min/1e6 cells	
O=C(c1nnc(-c2ccccc2)o1)N1CC(Oc2ccc(CN3CC4(COC4)C3)cc2Cl)C1	76 µM (≈ 35.5 µg/mL)	2.7	7.5	12.4 µL/min/1e6 cells	
O=C(c1nnc(-c2ccc(C(F)F)cc2)o1)N1CC(Oc2ccc(CN3CC4(COC4)C3)cc2)C1	86 µM (≈ 41.5 µg/mL)	2.4	8.5	5.3 µL/min/1e6 cells	
O=C(NC1C2CC3CC1CC(O)(C3)C2)c1cnc(NC2COC2)nc1C1CC1 (configuration not stated)	580 µM (≈ 223 µg/mL)	1.1	2.8		< 2 µL/min/mg
O=C(c1nnc(-c2ccc(F)cc2)o1)N1CC(Oc2ccc(CN3CC4(COC4)C3)cc2)C1	735 µM (≈ 331 µg/mL)	2	8.2	1.9 µL/min/1e6 cells	
COc1ccc(-c2nnc(C(=O)N3CC(Oc4ccc(COCC5(C)COC5)cc4)C3)o2)cc1	3 µM (≈ 1.4 µg/mL)				> 300 µL/min/mg
COc1ccc(-c2nnc(C(=O)N3CC(Oc4ccc(CN5CCCC56COC6)cc4)C3)o2)cc1	3 µM (≈ 1.43 µg/mL)		6	48.7 µL/min/1e6 cells	
O=C(c1nnc(-c2ccccc2)o1)N1CC(Oc2ccc(CN3CC4(COC4)C3)c(Cl)c2)C1	90 µM (≈ 42 µg/mL)	3	7.7	32.7 µL/min/1e6 cells	
COc1ccc(CN2CC3(COC3)C2)cc1	364 µM (≈ 79.8 µg/mL)	0.4	8.25		< 3 µL/min/mg
O=C(c1nnc(-c2ccccc2)o1)N1CC(Oc2ccc(CN3CC4(COC4)C3)cc2)C1	89 µM (≈ 38.5 µg/mL)		8	6.1 µL/min/1e6 cells	
O=C(NC1C2CC3CC1CC(O)(C3)C2)c1cnc(OC2COC2)nc1C1CCC1 (configuration not stated)	818 µM (≈ 327 µg/mL)	1.6			6.1 µL/min/mg
COc1ccc(CN2CCC3(CC2)COC3)cc1	750 µM (≈ 186 µg/mL)	0.8	8.56		20.6 µL/min/mg
O=C(NC1C2CC3CC1CC(O)(C3)C2)c1cnc(OC2COC2)nc1C1CC1 (configuration not stated)	867 µM (≈ 334 µg/mL)	2			< 2 µL/min/mg
O=C(NC1C2CC3CC1CC(O)(C3)C2)c1cnc(OC2COC2)nc1C1CCCC1 (configuration not stated)	476 µM (≈ 197 µg/mL)	1.9	2.6		2.8 µL/min/mg
